Reference: ChEMBL document CHEMBL1201862, “PubChem BioAssay data set” (2004)
Calls of active or inactive are those of the source.

Assays:
Assay type in all cases: functional
[1] = biological target: Serine/threonine-protein kinase PLK3 (Homo sapiens, UniProt Q9H4B4)
[2] = biological target: Serine/threonine-protein kinase Chk2 (Homo sapiens, UniProt O96017);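 note: CHEK2 entry within a kinome-wide screening panel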
[3] = biological target: Mitogen-activated protein kinase 8 (Homo sapiens, UniProt P45983);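 note: value comes from one member of a kinome-wide kinase profiling panel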
Sequence of Mitogen-activated protein kinase 8 (P45983 whole entry): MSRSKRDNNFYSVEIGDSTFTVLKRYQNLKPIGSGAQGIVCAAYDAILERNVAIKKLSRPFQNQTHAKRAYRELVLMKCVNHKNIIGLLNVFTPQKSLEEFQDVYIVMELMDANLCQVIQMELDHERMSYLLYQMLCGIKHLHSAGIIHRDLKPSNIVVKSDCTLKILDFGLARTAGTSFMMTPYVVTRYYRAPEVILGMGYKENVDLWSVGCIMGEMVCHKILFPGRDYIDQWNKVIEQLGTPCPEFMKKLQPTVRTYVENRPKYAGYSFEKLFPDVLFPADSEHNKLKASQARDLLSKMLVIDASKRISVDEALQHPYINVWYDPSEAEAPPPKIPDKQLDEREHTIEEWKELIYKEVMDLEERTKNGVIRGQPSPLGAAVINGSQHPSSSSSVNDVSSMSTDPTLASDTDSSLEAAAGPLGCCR

[4] = biological target: Casein kinase II subunit alpha (Homo sapiens, UniProt P68400)
Sequence of Casein kinase II subunit alpha (P68400 whole entry): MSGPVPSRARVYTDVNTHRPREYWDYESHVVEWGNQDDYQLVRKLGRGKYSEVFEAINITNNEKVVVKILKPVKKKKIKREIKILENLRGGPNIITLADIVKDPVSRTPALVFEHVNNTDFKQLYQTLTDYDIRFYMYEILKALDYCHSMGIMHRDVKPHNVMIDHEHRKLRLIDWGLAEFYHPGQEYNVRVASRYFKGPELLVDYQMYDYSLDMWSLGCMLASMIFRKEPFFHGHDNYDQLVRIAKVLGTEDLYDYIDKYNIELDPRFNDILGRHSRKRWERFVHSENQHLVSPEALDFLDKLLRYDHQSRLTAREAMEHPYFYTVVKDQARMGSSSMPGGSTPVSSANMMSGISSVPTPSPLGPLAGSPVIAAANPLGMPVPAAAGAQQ

[5] = biological target: Tyrosine-protein kinase JAK3 (Homo sapiens, UniProt P52333)
Sequence of Tyrosine-protein kinase JAK3 (P52333 whole entry): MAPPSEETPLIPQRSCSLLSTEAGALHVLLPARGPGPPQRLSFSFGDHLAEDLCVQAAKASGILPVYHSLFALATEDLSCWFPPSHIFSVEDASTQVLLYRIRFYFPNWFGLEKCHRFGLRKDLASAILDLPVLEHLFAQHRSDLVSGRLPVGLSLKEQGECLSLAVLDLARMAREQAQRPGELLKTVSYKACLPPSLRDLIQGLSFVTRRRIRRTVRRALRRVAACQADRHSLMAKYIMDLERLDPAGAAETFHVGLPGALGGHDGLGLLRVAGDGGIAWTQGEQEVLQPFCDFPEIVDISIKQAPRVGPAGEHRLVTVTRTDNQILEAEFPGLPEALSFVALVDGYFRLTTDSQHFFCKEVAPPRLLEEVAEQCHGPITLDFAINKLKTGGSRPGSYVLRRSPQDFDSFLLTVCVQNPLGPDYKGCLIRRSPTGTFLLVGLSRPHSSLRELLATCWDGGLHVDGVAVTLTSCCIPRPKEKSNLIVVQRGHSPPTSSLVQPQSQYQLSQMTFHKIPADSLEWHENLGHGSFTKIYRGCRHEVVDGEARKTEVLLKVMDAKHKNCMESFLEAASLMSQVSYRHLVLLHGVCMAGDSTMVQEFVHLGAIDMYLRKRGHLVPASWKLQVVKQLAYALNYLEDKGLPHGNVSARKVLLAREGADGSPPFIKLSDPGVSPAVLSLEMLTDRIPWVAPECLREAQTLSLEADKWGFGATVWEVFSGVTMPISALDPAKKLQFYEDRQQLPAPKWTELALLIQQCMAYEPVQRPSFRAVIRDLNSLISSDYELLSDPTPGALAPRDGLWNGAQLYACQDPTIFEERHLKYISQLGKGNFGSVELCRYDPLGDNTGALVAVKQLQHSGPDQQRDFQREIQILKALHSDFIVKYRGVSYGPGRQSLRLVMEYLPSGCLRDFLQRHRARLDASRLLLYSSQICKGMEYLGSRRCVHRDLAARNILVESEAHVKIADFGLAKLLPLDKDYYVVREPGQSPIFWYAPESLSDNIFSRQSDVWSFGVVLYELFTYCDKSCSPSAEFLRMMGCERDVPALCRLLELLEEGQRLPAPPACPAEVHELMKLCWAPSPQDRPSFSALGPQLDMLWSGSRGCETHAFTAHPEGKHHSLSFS

[6] = biological target: Tyrosine-protein kinase Blk (Homo sapiens, UniProt P51451);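 note: obtained as one member of a kinome-wide kinase assay panel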
[7] = biological target: Non-receptor tyrosine-protein kinase TYK2 (Homo sapiens, UniProt P29597)
[8] = biological target: Proto-oncogene tyrosine-protein kinase Src (Homo sapiens, UniProt P12931);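 note: SRC entry within a kinome-wide kinase profiling panel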
[9] = biological target: Receptor-type tyrosine-protein kinase FLT3 (Homo sapiens, UniProt P36888);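 note: FLT3 was tested as one member of a kinome-wide kinase panel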
Sequence of Receptor-type tyrosine-protein kinase FLT3 (P36888 whole entry): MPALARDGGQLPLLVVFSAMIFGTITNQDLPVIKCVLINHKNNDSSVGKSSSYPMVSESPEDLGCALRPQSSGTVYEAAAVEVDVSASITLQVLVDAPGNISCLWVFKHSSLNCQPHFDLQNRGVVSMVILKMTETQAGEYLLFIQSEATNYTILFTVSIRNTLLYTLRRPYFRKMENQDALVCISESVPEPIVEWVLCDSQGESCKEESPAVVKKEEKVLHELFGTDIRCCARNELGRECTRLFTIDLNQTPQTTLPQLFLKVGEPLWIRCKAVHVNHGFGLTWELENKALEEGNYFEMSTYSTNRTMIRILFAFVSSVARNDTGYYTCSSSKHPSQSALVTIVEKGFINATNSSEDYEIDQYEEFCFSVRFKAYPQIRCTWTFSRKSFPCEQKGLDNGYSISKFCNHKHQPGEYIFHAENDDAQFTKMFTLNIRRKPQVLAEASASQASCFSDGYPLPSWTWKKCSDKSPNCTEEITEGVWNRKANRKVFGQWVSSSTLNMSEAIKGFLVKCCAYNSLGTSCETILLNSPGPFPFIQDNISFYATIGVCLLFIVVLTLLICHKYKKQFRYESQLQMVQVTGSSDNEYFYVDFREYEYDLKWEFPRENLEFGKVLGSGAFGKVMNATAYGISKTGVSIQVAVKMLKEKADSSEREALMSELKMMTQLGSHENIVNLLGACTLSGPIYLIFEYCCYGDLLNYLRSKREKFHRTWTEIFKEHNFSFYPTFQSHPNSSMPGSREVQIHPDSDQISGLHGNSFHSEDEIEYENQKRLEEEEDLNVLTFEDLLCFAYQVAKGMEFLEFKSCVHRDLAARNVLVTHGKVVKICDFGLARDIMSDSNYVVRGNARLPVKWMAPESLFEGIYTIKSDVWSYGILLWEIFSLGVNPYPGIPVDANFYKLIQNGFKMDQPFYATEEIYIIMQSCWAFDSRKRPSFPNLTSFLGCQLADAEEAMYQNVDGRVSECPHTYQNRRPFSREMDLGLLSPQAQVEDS

[10] = biological target: Receptor tyrosine-protein kinase erbB-2 (Homo sapiens, UniProt P04626); assay: Navigating the Kinome. Panel member name: ERBB2
[11] = biological target: MAP kinase-activated protein kinase 3 (Homo sapiens, UniProt Q16644);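 note: value comes from a kinome-wide profiling panel in which MAPKAPK3 is one of the panel members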
[12] = biological target: RAC-alpha serine/threonine-protein kinase (Homo sapiens, UniProt P31749);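 note: AKT1 affinity measured as one member of a kinome-wide kinase profiling panel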
[13] = biological target: Vascular endothelial growth factor receptor 1 (Homo sapiens, UniProt P17948);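 note: measured within a kinome-wide profiling panel, FLT1 as the panel member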
Sequence of Vascular endothelial growth factor receptor 1 (P17948 whole entry): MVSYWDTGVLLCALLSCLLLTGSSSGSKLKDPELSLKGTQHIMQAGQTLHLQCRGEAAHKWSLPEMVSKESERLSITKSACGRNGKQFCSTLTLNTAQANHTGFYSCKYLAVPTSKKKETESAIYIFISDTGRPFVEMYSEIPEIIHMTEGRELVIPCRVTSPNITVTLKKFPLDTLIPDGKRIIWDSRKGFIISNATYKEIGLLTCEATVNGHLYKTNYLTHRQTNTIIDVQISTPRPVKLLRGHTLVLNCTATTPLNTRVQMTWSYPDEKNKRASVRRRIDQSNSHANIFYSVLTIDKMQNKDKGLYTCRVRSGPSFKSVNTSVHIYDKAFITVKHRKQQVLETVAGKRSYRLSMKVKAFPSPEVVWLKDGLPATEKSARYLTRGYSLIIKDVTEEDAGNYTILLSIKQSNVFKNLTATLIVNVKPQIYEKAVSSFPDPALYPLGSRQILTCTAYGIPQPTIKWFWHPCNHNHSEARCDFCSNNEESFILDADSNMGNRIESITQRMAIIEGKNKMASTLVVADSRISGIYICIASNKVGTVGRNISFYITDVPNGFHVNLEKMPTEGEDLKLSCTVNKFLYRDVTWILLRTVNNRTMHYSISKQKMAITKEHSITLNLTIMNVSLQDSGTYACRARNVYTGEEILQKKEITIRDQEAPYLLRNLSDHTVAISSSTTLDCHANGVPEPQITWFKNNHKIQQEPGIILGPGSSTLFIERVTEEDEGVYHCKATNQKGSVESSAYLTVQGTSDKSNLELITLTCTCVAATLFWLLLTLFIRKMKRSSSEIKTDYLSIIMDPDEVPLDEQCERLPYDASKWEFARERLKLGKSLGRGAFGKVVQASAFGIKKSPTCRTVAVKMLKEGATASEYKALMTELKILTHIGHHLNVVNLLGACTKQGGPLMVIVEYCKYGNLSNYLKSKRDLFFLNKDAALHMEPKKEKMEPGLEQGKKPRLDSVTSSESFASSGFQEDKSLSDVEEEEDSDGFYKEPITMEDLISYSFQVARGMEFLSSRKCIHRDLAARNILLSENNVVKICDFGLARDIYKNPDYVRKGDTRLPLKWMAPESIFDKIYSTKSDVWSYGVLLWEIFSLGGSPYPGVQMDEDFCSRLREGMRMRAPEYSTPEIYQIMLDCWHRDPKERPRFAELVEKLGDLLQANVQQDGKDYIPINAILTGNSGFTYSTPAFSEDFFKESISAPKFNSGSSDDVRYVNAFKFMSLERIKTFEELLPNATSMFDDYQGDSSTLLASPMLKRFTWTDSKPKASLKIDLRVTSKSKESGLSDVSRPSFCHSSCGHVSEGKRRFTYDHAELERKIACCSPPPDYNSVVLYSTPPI

[14] = biological target: cAMP-dependent protein kinase catalytic subunit alpha (Homo sapiens, UniProt P17612)
[15] = biological target: T1, Replicative DNA helicase DnaB (Mycobacterium tuberculosis, UniProt P9WMR3); assay: DnaB intein splicing inhibitors, dose response, biochemical, cell-free fluorescence (AID 449749)
T1 sequence (P9WMR3 whole entry): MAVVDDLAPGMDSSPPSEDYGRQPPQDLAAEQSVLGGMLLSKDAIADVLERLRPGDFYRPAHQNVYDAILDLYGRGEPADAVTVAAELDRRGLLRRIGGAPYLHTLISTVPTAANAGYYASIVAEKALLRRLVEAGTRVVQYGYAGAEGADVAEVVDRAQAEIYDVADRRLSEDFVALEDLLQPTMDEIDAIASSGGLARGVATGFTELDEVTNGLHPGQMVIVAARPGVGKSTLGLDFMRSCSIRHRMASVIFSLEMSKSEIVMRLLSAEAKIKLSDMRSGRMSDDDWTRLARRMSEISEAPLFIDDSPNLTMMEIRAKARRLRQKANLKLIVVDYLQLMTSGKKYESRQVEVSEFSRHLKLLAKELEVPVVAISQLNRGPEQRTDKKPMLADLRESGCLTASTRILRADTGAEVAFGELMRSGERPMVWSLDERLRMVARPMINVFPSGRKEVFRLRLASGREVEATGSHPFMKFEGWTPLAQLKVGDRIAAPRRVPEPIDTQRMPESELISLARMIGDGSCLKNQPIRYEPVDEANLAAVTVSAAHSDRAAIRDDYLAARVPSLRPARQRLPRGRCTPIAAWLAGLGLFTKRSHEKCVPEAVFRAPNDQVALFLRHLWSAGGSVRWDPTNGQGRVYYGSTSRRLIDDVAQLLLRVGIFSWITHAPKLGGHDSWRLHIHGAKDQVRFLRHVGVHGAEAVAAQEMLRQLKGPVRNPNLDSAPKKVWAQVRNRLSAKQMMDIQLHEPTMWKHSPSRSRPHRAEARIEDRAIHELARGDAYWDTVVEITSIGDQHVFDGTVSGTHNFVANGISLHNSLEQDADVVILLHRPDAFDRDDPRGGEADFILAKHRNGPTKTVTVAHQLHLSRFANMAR

Vero = assay: viability of Vero cells under compound – cytotoxicity control for flavivirus capping enzyme inhibitors (AID 588742); conditions: Chlorocebus sabaeus
[16] = biological target: Mitochondrial peptide methionine sulfoxide reductase (Bos taurus, UniProt P54149); assay: Absorbance-based biochemical high throughput dose response assay for activators of Methionine sulfoxide reductase A (MsrA).
[17] = biological target: ALK tyrosine kinase receptor (Homo sapiens, UniProt Q9UM73);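 note: ALK tested as one member of a kinase panel screen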
[18] = biological target: Tyrosine-protein kinase BTK (Homo sapiens, UniProt Q06187)
[19] = biological target: Mitogen-activated protein kinase kinase kinase kinase 2 (Homo sapiens, UniProt Q12851);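 note: measured as one member of a kinome-wide kinase panel, with MAP4K2 as the panel entry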
Activated CDC42 kinase 1 = Activated CDC42 kinase 1 (Homo sapiens, UniProt Q07912); assay: Navigating the Kinome. Panel member name: ACK1
Focal adhesion kinase 1 = Focal adhesion kinase 1 (Homo sapiens, UniProt Q05397);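 note: measured as one member of a kinome panel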

Sequence of Serine/threonine-protein kinase PLK3 (Q9H4B4 whole entry): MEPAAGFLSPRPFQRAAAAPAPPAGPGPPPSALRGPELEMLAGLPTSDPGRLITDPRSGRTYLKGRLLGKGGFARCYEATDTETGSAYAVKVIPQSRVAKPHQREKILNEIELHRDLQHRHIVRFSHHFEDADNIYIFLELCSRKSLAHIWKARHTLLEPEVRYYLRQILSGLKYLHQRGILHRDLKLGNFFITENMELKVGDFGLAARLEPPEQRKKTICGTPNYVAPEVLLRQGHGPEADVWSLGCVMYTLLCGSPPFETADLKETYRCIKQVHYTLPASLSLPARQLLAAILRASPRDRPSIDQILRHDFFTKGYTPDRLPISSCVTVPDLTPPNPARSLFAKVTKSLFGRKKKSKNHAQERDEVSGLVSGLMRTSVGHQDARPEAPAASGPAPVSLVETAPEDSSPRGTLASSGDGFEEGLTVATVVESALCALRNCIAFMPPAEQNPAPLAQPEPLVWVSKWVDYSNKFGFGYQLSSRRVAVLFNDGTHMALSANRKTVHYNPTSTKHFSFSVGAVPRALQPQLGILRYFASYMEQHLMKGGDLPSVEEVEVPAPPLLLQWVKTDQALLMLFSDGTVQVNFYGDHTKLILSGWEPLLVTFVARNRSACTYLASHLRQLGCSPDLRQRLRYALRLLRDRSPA

CCOC(=O)c1cn(-c2ccc(O)cc2C)c2cc(-c3ccncc3)ccc2c1=O
Ki [1]: > 7.94 µM (inactive) | Ki [2]: > 10 µM (inactive) | Ki [3]: > 3.16 µM (inactive) | Ki [4]: > 6.31 µM (inactive) | Ki [5]: > 1.58 µM (inactive) | Ki [6]: > 1.58 µM (inactive) | Ki [7]: > 2 µM (inactive) | Ki [8]: > 5.01 µM (inactive) | Ki [9]: > 2.51 µM (inactive) | Ki [10]: > 1.58 µM (inactive) | Ki [11]: > 10 µM (inactive) | Ki [12]: > 7.94 µM (inactive) | Ki [13]: > 0.398 µM (inactive) | Ki [14]: 1.26 µM (active)

O=C1C=C(NCc2ccccc2)c2ccccc2C1=O
AC50 [15]: > 380 µM (inconclusive) | CC50 (Vero): 19.1 µM (active) | EC50 [16]: 63.3 µM (inactive)

Cc1cc(=O)[nH]nc1-c1ccc(NC(=O)Nc2cc(C(F)(F)F)ccc2F)c(Cl)c1
Ki [17]: > 6.31 µM (inactive) | Ki [3]: > 5.01 µM (inactive) | Ki [18]: > 6.31 µM (inactive) | Ki [5]: > 5.01 µM (inactive) | Ki [19]: > 2.51 µM (inactive) | Ki (Activated CDC42 kinase 1): > 3.98 µM (inactive) | Ki [9]: > 3.16 µM (inactive) | Ki (Focal adhesion kinase 1): > 6.31 µM (inactive) | Ki [13]: > 3.98 µM (inactive) | Ki [14]: > 1.26 µM (inactive)
